Source: article PMC5107945, “Abscinazole-E3M, a practical inhibitor of abscisic acid 8′-hydroxylase for improving drought tolerance” (Scientific Reports, 2016)

Assays:
endogenous ABA level = assay: Endogenous ABA levels in Arabidopsis; type: in vivo; conditions: Arabidopsis four-week-old plants, 50 μM, overnight
Description: The effects of (-)-Abz-[…] were also determined relative to stomatal apertures. Arabidopsis grown in soil pots underwent moderate drought stress under the optimal growth conditions of 22 °C and 60% relative humidity. Under these growth conditions, the leaf surface temperature of the mock-treated controls was 19.5 °C, which was lower than the surrounding atmospheric temperature because of transpirational water loss (Fig. 6a,b)[30]. […] Finally, we examined the effects of (-)-Abz-[…] on drought tolerance under more practical conditions. Three-week-old Arabidopsis were sprayed with an aqueous solution containing 50 μM (-)-Abz-[…]. Water was not supplied for 12 days, and then the plants were rehydrated. […] We also tested the effects of (-)-Abz-[…] on a monocot crop, maize, to evaluate whether (-)-Abz-[…] affected stomatal movement and enhanced ABA response across plant species. […] Thus, the effects of (-)-Abz-[…] were not restricted to the model plant Arabidopsis. Figure 6 Effects of (-)-Abz-[…] on Arabidopsis drought tolerance. (a,b) Three-week-old plants were treated with 50 μM of (-)-Abz-[…] and incubated overnight at 22 °C with 60% relative humidity. Thermal images of plants were obtained using a thermal imaging camera ([…], Nippon Avionics Co., Ltd.), and the average temperatures on leaf surfaces were determined with NS9200 software (n = 5, error bars represent s.d.). […]

[1] = target: T1, Rice recombinant CYP701A6 (ent-kaurene oxidase) (Oryza sativa subsp. japonica, UniProt Q5Z5R4); assay: CYP701A6 inhibition assay (formation of end product KA); type: biochemical; conditions: Rice recombinant CYP701A6 expressed in insect cells; 10 μM ent-kaurene; formation of KA; read-out: CYP701A IC50
T1 construct: made in house; host or cells: insect cells (baculovirus vector)
T1 sequence (Q5Z5R4 1-505): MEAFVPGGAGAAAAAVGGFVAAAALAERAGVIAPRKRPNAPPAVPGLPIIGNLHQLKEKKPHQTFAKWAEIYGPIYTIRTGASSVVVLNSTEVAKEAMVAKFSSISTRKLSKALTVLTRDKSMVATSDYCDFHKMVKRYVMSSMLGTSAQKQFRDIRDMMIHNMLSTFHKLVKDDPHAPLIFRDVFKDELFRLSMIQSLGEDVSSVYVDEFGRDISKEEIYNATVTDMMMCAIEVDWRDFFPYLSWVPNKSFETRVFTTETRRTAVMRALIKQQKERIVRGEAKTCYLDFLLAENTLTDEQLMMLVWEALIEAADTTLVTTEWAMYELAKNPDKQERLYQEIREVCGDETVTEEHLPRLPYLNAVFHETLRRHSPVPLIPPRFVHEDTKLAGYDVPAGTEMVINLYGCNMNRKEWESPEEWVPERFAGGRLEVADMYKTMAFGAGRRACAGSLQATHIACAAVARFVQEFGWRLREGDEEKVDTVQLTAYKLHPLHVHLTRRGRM
Description: To evaluate the enzymatic selectivity between CYP707A and CYP701A, we examined the inhibitory activity against recombinant rice containing CYP701A6 expressed in insect cells using a baculovirus vector. This enzyme catalyses all three steps to KA via the corresponding alcohol and aldehyde, and consequently, the kinetic analysis is very complicated. Therefore, we evaluate the IC50 value for the formation of the end product, KA, instead of the KI value.
Reaction mixtures, containing 0.058 μM of […] microsomes, ATR2 (0.115 U), ent-kaurene (final concentration of 10 μM), inhibitors (0 for control, 1.5–1,500 μM in 8 μL dimethylformamide), and 20 mM NADPH in 500 mM potassium phosphate buffer (pH 7.4), were incubated at 30 °C for 10 min. Reactions were initiated by adding NADPH and stopped by the addition of 100 μL of 1 M HCl. Abietic acid, as the internal standard, was then added to the reaction product, which was extracted with EtOAc (400 μL × 3). The organic phase was dried over Na2SO4 and concentrated in vacuo. To derivatize the reaction products, MeOH (50 μL) and trimethylsilyldiazomethane (2 M in 5 μL hexane) were added, and the reaction mixture was incubated at room temperature for 10 min. The organic solvent was removed under N2, and samples were adjusted to 150 μL with hexane before a gas chromatography-mass spectrometry analysis (QP2010-plus; Shimadzu Corp., Kyoto, Japan). The conditions were as follows: the column was DB-5ms (0.25 mm id × 15 m, 0.25 μm film thickness; Agilent J & W, Folsom, CA, USA), the carrier gas was He, the flow rate was 1.65 mL min^−1, the injection port temperature was 280 °C, splitless injection, and the programmed column temperature was a step gradient of 80 °C for 1 min, 80–200 °C at 18 °C min^−1, 200–210 °C at 2 °C min^−1, 210–280 °C at 30 °C min^−1, and then 280 °C for 3 min. The KA content was calculated from the area ratio of molecular and fragment ions of methyl KA (m/z 316, 273, and 257) to those of methyl abietate (m/z 316 and 256). The inhibition ratio was defined as [(A − B)/A] × 100, where A = the amount of methyl KA/methyl abietate when the inhibitor was absent from the reaction mixture (control), and B = the amount of methyl KA/methyl abietate when the inhibitor was present. All of the tests were conducted at least three times.

ABA catabolism = conditions: in vivo
Description: For ABA measurements from Arabidopsis seedlings, samples (1–20 mg dry weight) were ground with beads in 2-mL tubes and homogenised in 1 mL 80% (v/v) MeCN containing 1% AcOH (v/v) with d6-ABA. After extracting for 16 h at 4 °C, samples were centrifuged at 4 °C for 10 min at 3,000× g, and supernatants were collected. Samples were re-extracted twice with 1 mL 80% MeCN at 4 °C for 30 min, and the supernatants were collected after centrifugation. MeCN was removed with nitrogen gas, and the acidified water extracts were loaded into 1cc Oasis HLB cartridges. After washing with water containing 1% AcOH, plant ABA was eluted with 80% MeCN containing 1% AcOH. MeCN was removed, and samples were loaded into 1cc Bond Elute DEA cartridges (Agilent). After washing with MeOH, the ABA was eluted using MeOH containing 1% AcOH. The fractions containing ABA were dried, dissolved in water containing 1% AcOH, and analysed by LC–MS/MS as described previously[35]. The LC conditions for Arabidopsis samples were as follows: solvent A, water containing 0.01% (v/v) acetic acid; solvent B, MeCN containing 0.05% (v/v) acetic acid; and linear gradient, 3 to 40% solvent B over 9 min. Experiments were performed in triplicate, and the results were averaged.
25 µ M (−)-Abz-E3M (n = 3,error bar represents s.d.).Eleven-day-old seedlings of wild-type (Col accession) […]

Substance: abscinazole-E3M [(−)-6]
- Endogenous ABA content (endogenous ABA level): significantly increase the ABA content
- IC50 [1]: 780 nM
- ABA catabolism / ABA accumulation in plants (ABA catabolism): inhibited ABA catabolism and increased ABA accumulation in plants
